Data from patent publication US20020103228A1, “Composition and method for use of pyridinium derivatives in cosmetic and therapeutic applications” (TORRENT PHARMACEUTICALS LTD., priority 1999, published 2002).
Where “and” joins values, the source holds several entries; their conditions need not be identical. Identical values can stand only once.

How the values were obtained:
[1] = Free radical scavenging activity on ABTS radical cation; type: biochemical
Procedure: This method measures the relative ability of free radical scavenging substances to scavenge the ABTS^.+ i.e. 2,2-Azino-bis-(3-ethyl benzo thiazoline-6-sulfonate) radical cation as compared to a standard amount of standard or free radical scavengers antioxidants. Incubation of ABTS with Peroxidase (metmyoglobin) and hydrogen peroxide results in the production of radical cation ABTS^.+. This species is blue-green in colour and can be detected at 730 nm. Antioxidants or free radical scavengers in the added sample that causes suppression of the color to a degree that is proportional to their concentration.
Preparation of Buffer Solutions
A. Phosphate Citrate Buffer (pH 5.0). 48.5 ml of 0.1M citric acid with sufficient 0.2M disodium hydrogen phosphate to produce 100 ml.
B. Phosphate Buffer Saline (PBS): Dissolve 40.0 g of NaCl, 1.0 g of KCl, 1.0 g of KH2PO4 and 3.05 g of Na2HPO4 in 1 liter milli-Q water. Dilute 200 ml of above solution to 1 liter with milli-Q water (pH 7.4-7.6).
C. 3 μM stock solution of Peroxidase was prepared in phosphate buffer saline pH 7.4(PBS).
D. 1.08 mM stock solution of Hydrogen peroxide was prepared in phosphate buffer saline pH 7.4 (PBS).
Preparation of ABTS Stock Solution
1 tablet (10 mg) was dissolved in phosphate citrate buffer (pH 5.0).
Preparation of ABTS Working Solution
5.0 ml of ABTS stock solution was diluted with PBS to 20 ml.
Preparation of Horse Radish Peroxidase Stock Solution
320 μg of the enzyme was dissolved in 2.5 ml of PBS.
Preparation of Hydrogen Peroxide (1.08 mM) Solution
12 μl of Hydrogen Peroxide (30% w/v) was diluted to 100 ml with PBS. […]
Preparation of ABTS Radical Stock Solution
To 18 ml of ABTS stock solution, 100 μl of Horseradish Peroxidase stock solution was added.
As soon as 1.5 ml of hydrogen peroxide solution was added to the above solution, blue-green colour of the ABTS radicals appeared. This solution was incubated at 30° C. for 30 min.
Preparation of Control Solution
980 μl of ABTS radical stock solution was added to an eppendorf tube. To it was added 100 μl of various PBS solution.
Preparation of test Solution
980 μl of ABTS radical stock solutions were added to different eppendorf tubes. To it were added 100 μl of various concentrations of drug solution.
Measurement of Absorbance (O.D)
The absorbance of control and test samples was recorded immediately at 730 nm taking PBS as blank.
Calculation: The percent antioxidant activity was calculated according to the formula. % Antioxidant activity=[O.D of test sample/O.D of control*100]−100.

AGE-BSA = molecular target: T1, AGE-BSA (Bos taurus, UniProt P02769); assay: In-vitro AGE breaking activity by ELISA; type: biochemical, Bovine; details: 37° C., 24 hours
T1 construct: Bovine serum albumin (fraction V) (BSA); from tissue; host or cells: bovine serum (fraction V); glycated in house with 1.6 M glucose at 37 °C for 16 weeks
T1 sequence (P02769 25-607): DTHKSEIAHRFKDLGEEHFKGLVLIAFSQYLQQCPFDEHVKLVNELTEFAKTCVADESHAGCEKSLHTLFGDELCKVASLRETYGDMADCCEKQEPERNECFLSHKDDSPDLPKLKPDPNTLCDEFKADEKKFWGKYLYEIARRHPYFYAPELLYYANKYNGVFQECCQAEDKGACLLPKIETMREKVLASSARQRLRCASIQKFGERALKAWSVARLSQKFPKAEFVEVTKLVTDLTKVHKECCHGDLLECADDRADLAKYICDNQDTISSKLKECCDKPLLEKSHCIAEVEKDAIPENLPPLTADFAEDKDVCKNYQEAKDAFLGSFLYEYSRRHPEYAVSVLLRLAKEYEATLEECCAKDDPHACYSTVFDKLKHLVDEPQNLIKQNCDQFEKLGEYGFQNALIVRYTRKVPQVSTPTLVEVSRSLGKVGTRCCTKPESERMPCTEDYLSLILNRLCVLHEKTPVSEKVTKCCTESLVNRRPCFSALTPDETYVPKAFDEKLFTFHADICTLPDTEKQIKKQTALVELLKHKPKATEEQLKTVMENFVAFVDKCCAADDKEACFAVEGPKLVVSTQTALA
Procedure: AGE breaking activity has been confirmed by the screening procedure as mentioned below:
Methods of experiment: Elisa (Enzyme Linked Immunosorbent Assay)
160 mg/ml of protein, bovine serum albumin, BSA and 1.6M glucose sugar were dissolved in phosphate buffered saline, PBS. Sodium azide was added at 0.02% concentration as a preservative. The solution was filtered asceptically through a […] filter and kept for aging at 37° C. for 16 weeks. After 16 weeks the solution was dialyzed against PBS, aliquoted and stored at −20° C.
To determine the AGE breaking activity, 10 μg/ml of the 16 weeks AGE-BSA was incubated with different concentrations of the test compounds at 37° C. for 24 hours and AGE breaking activity of the test compounds by ELISA was determined.
ELISA was performed as follows
1. Different concentrations of 16 weeks AGE-BSA were coated on a microtiter plate as standard. Each concentration is coated in triplicates.
2. The test samples were coated on microtiter plate at a concentration of 5 ng to 20 ng per well in triplicates
3. The plate was incubated at 37° C. for one hour.
4. After incubation the plate was washed with PBST (PBS with 0.05% Tween 20).
5. Blocking with 5% skimmed milk in PBS at 37° C. for one hour was done.
6. The plate was washed with PBST.
7. Primary antibody against AGE-BSA was added and the plate is incubated at 37° C. for one hour.
8. The plate was washed with PBST
9. Secondary antibody anti rabbit HRPO (Horse-Radish Per Oxidase) conjugate was added and the plate is incubated at 37° C. for one hour.
10. The plate was washed with PBST.
11. Colour development with OPD (orthophenylenediamine dihydrochloride) and hydrogen peroxide was done.
12. OD (optical density) at (450 nm reading-620 nm reading) was measured after incubation at 37° C. for 15 minutes with Microplate ELISA Reader
The breaker activity of the compounds were determined by the following formula: [formula]
OD450-620Control=Absorbance of 20 ng AGE-BSA after incubation at 37° C. for 24 hours without test compound
OD450-620Test=Absorbance of 20 ng AGE-BSA after incubation at 37° C. for 24 hours with required concentration of test compound
Using specific examples, the % AGE breaking activity was calculated and recorded in Table 2.

Compound	Relative Free Radical Scavenging Activity (%) on ABTS ([1]; 11.5 μM)	Relative Free Radical Scavenging Activity (%) on ABTS ([1]; 23.0 μM)	Relative Free Radical Scavenging Activity (%) on ABTS ([1]; 46.0 μM)	Relative Free Radical Scavenging Activity (%) on ABTS ([1]; 92.5 μM)	Relative Free Radical Scavenging Activity (%) on ABTS ([1]; 925 μM)	% Breakage (AGE-BSA; 10 mM test compound)	Relative Free Radical Scavenging Activity (%) on ABTS ([1]; 11.5 μM, listed as Compound No. 64, 11.5 µM)	Relative Free Radical Scavenging Activity (%) on ABTS ([1]; 23.0 μM, listed as Compound No. 64, 23 µM)	Relative Free Radical Scavenging Activity (%) on ABTS ([1]; 46.0 μM, listed as Compound No. 64, 46 µM)	Relative Free Radical Scavenging Activity (%) on ABTS ([1]; 92.5 μM, listed as Compound No. 64, 92.5 µM)	% Breakage (AGE-BSA; 25 mM test compound)
CCOC(=O)C[n+]1cccc(C(=O)NNc2ccccn2)c1.[Br-] [Compound 4, 1-(2-ethoxy-2-oxoethyl)-3-(2-(2-pyridyl)hydrazinocarbonyl)pyridinium bromide]	58.2%	64.3%	69.3%	98.6%	100%	30%	–	–	–	–	–
Cc1ccc(C(=O)C[n+]2cccc(C(=O)NNS(C)(=O)=O)c2)s1.[Cl-] [Compound 63, 1-(2-(5-methylthien-2-yl)-2-oxoethyl)-3-(methanesulfonyl hydrazinocarbonyl)pyridinium chloride]	10.75%	47.20%	88.64%	99.18%	–	25.17%	–	–	–	–	–
CS(=O)(=O)NNC(=O)c1ccc[n+](CC(=O)c2cc([N+](=O)[O-])cs2)c1.[Br-] [Compound 64, 1-(2-(4-nitrothien-2-yl)-2-oxoethyl)-3-(methanesulfonyl hydrazinocarbonyl)pyridinium bromide]	–	–	–	–	100%	60.94%	41.8% and 26.01%	55.7% and 57.39%	72.2% and 99.30%	99.0% and 99.62%	–
CCOC(=O)NNC(=O)c1ccc[n+](CC(=O)c2cccs2)c1.[Br-] [Compound 54, 1-(2-thien-2′-yl-2-oxoethyl)-3-(ethoxycarbonyl hydrazinocarbonyl)pyridinium bromide]	5.22%	15.45%	46.82%	77.07%	–	33.43%	–	–	–	–	–
O=C(NNC(=O)c1ccc[n+](CC(=O)c2cc([N+](=O)[O-])cs2)c1)c1ccc[n+](CC(=O)c2cc([N+](=O)[O-])cs2)c1.[Cl-].[Cl-] [Compound 56, N,N′-bis[3-carbonyl-1-(2-(4-nitrothien-2-yl)-2-oxoethyl)pyridinium]hydrazine dichloride]	43.0%	57.2%	71.6%	97.7%	100%	75.92%	–	–	–	–	–
CS(=O)(=O)NNC(=O)c1ccc[n+](CC(=O)c2ccc(Cl)s2)c1.[Br-] [Compound 55, 1-(2-(5-chlorothien-2-yl)-2-oxoethyl)-3-(methanesulfonyl hydrazinocarbonyl)pyridinium bromide]	46.47%	84.97%	99.50%	99.93%	–	40.85%	–	–	–	–	–
CCCCOC(=O)c1ccc[n+](CC(=O)Nc2ccccc2)c1.[Cl-] [Compound 93, 1-(2-Phenylamino-2-oxoethyl)-3-(n-butyloxycarbonyl)pyridinium chloride]	8.5%	8.6%	9.6%	11.4%	25.0%	57%	–	–	–	–	–
CC(C)S(=O)(=O)NNC(=O)c1ccc[n+](CC(=O)c2cccs2)c1.[Br-] [Compound 50, 1-(2-thien-2′-yl-2-oxoethyl)-3-(isopropylsulfonyl hydrazinocarbonyl)pyridinium bromide]	3.30%	23.06%	54.95%	89.31%	–	31.45%	–	–	–	–	–
COCCOC(=O)c1ccc[n+](CC(=O)c2ccc(Cl)cc2Cl)c1.[Br-] [Compound 22, 1-(2-(2′,4′-dichlorophenyl)-2-oxoethyl)-3-(2(methoxy)ethyloxycarbonyl)pyridinium bromide]	27.9%	50.9%	69.3%	79.7%	100%	13%	–	–	–	–	41%
CS(=O)(=O)NNC(=O)c1ccc[n+](CC(=O)N2CCC(Cc3ccccc3)CC2)c1.[Cl-] [Compound 51, 1-(2-(4-benzylpiperidin-1-yl)-2-oxoethyl)-3-(methanesulfonyl hydrazinocarbonyl)pyridinium chloride]	0.00%	21.64%	52.82%	83.94%	–	20.94%	–	–	–	–	–
O=C(NNS(=O)(=O)C(F)(F)F)c1ccc[n+](CC(=O)c2cccs2)c1.[Br-] [Compound 68, 1-(2-thien-2′-yl-2-oxoethyl)-3-(trifluoromethanesulfonyl hydrazinocarbonyl)-pyridinium bromide]	38.47%	43.54%	89.32%	95.07%	–	92.64%	–	–	–	–	–
